Laboratory results published in patent US20050260568A1, “Hepatitis C virus assays” (priority 2004, published 2005).

Experiments:
[1] = tested on: HCV replicon; test: HCV replicon FRET assay (NS3 protease activity as indirect measure of HCV RNA replication); format: cell-based, Hepatitis C virus; conditions: FIG. 7A IFN-α control titration 1000 to 1 units
Source text: To perform the HCV FRET screening assay, 96-well cell culture plates were used. The FRET peptide (Anaspec, Inc.) (Taliani et al., Anal. Biochem. 240:60-67 (1996), expressly incorporated by reference in its entirety) contains a fluorescence donor, EDANS, near one end of the peptide and an acceptor, DABCYL, near the other end. The fluorescence of the peptide is quenched by intramolecular resonance energy transfer (RET) between the donor and the acceptor, but as the NS3 protease cleaves the peptide the products are released from RET quenching and the fluorescence of the donor becomes apparent. […]
Subsequent to addition of the test compounds described above (FRET Assay Preparation), at various times the plate was removed and Alamar Blue solution (Trek Diagnostics, #00-100) was added per well as a measure of cellular toxicity. After reading in a Cytoflour 4000 instrument (PE Biosystems), plates were rinsed with PBS and then used for FRET assay by the addition of 30 ul of the FRET peptide assay reagent described above (FRET Assay Preparation) per well. The plate was then placed into the Cytoflour 4000 instrument which had been set to 340 excite/490 emission, automatic mode for 20 cycles and the plate read in a kinetic mode. Typically, the signal to noise using an endpoint analysis after the reads was at least three-fold. […]

[2] = tested on: Huh-7 replicon cells; test: Alamar Blue cytotoxicity assay; format: cell-based; conditions: lower concentrations of IFN-α (100, 10, 1 units)
Protocol: Subsequent to addition of the test compounds described above (FRET Assay Preparation), at various times the plate was removed and Alamar Blue solution (Trek Diagnostics, #00-100) was added per well as a measure of cellular toxicity. After reading in a Cytoflour 4000 instrument (PE Biosystems), plates were rinsed with PBS and then used for FRET assay by the addition of 30 ul of the FRET peptide assay reagent described above (FRET Assay Preparation) per well. The plate was then placed into the Cytoflour 4000 instrument which had been set to 340 excite/490 emission, automatic mode for 20 cycles and the plate read in a kinetic mode. Typically, the signal to noise using an endpoint analysis after the reads was at least three-fold.
Compound analysis was determined by quantification of the relative HCV replicon inhibition and the relative cytotoxicity values. To calculate cytotoxicity values, the average Alamar Blue fluorescence signals from the control wells in row 11 (FIG. 4) were set as 100% non-toxic. The individual signals in each of the compound test wells were then divided by the average control signal and multiplied by 100% to determine […]. To calculate the HCV replicon inhibition values, an average background value FRET signal was obtained from the two wells containing the highest amount of interferon at the end of the assay period. […]

## Interferon alpha [IFN-α]
[1]
  EC50 in control samples of random compound plate (FRET): close to or slightly lower than the lowest concentration of IFN-α used
[2]
  cytotoxicity (Alamar Blue staining change): no apparent Alamar Blue staining change
